Data reported in patent US6906007B2, “Phenyl-substituted 5,6-dihydropyrone derivatives for use as pesticides and herbicides” (Bayer CropScience AG, priority 2000, dated 2005).

Tests used:
Type in all cases: in vivo
[1] = system: Meloidogyne incognita; assay: Meloidogyne test (Example A); settings: 20 ppm active compound, gall formation on lettuce roots
Method: (§1) Meloidogyne Test Solvent: 30 parts by weight of dimethylformamide Emulsifier: 1 part by weight of alkylaryl polyglycol ether To produce a suitable preparation of active compound, 1 part by weight of active compound is mixed with the stated amounts of solvent and emulsifier, and the concentrate is diluted with water to the desired concentration. Containers are filled with sand, solution of active compound, Meloidogyne incognita egg/larvae suspension and lettuce seeds. The lettuce seeds germinate and the plants develop. On the roots, galls are formed. After the desired period of time, the nematicidal action in % is determined using the formation of galls as a measure. 100% means that no galls have been found; 0% means that the number of galls on the treated plants corresponds to that on the untreated control.

[2] = system: Sphaerotheca fuliginea; assay: Sphaerotheca test (cucumber)/protective; settings: 750 g/ha, protective, evaluation 7 days after inoculation
Method: Sphaerotheca Test (Cucumber)/Protective
Solvent: 48.8 parts by weight of N,N-dimethylformamide
Emulsifier: 1.2 parts by weight of alkylaryl polyglycol ether
(§2) To produce a suitable preparation of active compound, 1 part by weight of active compound is mixed with the stated amounts of solvent and emulsifier, and the concentrate is diluted with water to the desired concentration.
To test for protective activity, young cucumber plants are sprayed with the preparation of active compound at the stated application rate. 1 day after the treatment, the plants are inoculated with a spore suspension of Sphaerotheca fuliginea. The plants are then placed in a greenhouse at 70% relative atmospheric humidity and a temperature of 23° C.
Evaluation is carried out 7 days after the inoculation. 0% means an efficacy which corresponds to that of the control, whereas an efficacy of 100% meais that no infection is observed.

[3] = system: caterpillars of the army worm (Spodoptera frugiperda); assay: Spodoptera frugiperda test; settings: 1000 ppm, cabbage leaves dipped
Method: (§3) Spodoptera frugiperda Test Solvent: 30 parts by weight of dimethylformamide Emulsifier: 1 part by weight of alkylaryl polyglycol ether To produce a suitable preparation of active compound, 1 part by weight of active compound is mixed with the stated amounts of solvent and emulsifier, and the concentrate is diluted with water to the desired concentration. Cabbage leaves (Brassica oleracea) are treated by being dipped into the preparation of active compound of the desired concentration and are populated with caterpillars of the army worm (Spodoptera frugiperda) while the leaves are still moist. After the desired period of time, the kill in % is determined. 100% means that all of the caterpillars have been killed; 0%. means that none of the caterpillars has been killed. In this test, for example, the following compounds of the Preparation Examples show good activity.

[4] = system: larvae of the mustard beetle (Phaedon cochleariae); assay: Phaedon larvae test; settings: 1000 ppm, cabbage leaves dipped
Method: as §3, with “Phaedon larvae Test” for “Spodoptera frugiperda Test”, “with larvae” for “with caterpillars”, “the mustard beetle (Phaedon cochleariae)” for “the army worm (Spodoptera frugiperda)”, “the beetle larvae” for “the caterpillars”, “been killed. 0%” for “been killed; 0%.”

[5] = system: greenhouse red spider mite (Tetranychus urticae); assay: Tetranychus test (OP-resistant/dip treatment); settings: bean plants dipped
Method: Tetranychus Test (OP-Resistant/Dip Treatment)
Solvent: 30 parts by weight of dimethylformamide
Emulsifier: 1 part by weight of alkylaryl polyglycol ether
as §2
Bean plants (Phaseolus vulgaris) which are heavily infested by all stages of the greenhouse red spider mite (Tetranychus urticae) are dipped into a preparation of active compound of the desired concentration.
After the desired period of time, the effect in % is determined. 100% means that all of the spider mites have been killed, 0% means that none of the spider mites has been killed.
In this test, for example, the following compounds of the Preparation Examples show good activity.

[6] = system: peach aphid (Myzus persicae); assay: Myzus test; settings: 1000 ppm, cabbage leaves dipped
Method: as §3, with “Myzus Test” for “Spodoptera frugiperda Test”, “oleracea) which are heavily infested by the peach aphid (Myzus persicae)” for “oleracea)”, “into a” for “into the”, “desired concentration.” for “desired concentration and are populated with caterpillars of the army worm (Spodoptera frugiperda) while the leaves are still moist.”, “the aphids” for “the caterpillars”, “been killed: 0%” for “been killed; 0%.”

[7] = system: fruit tree red spider mite (Panonychus ulmi); assay: Panonychus test; settings: 200 ppm, plum trees sprayed
Method: Panonychus Test Solvent: 3 parts by weight of dimethylformamide Emulsifier: 1 part by weight of alkylaryl polyglycol ether To produce a suitable preparation of active compound, 1 part by weight of active compound is mixed with the stated amounts of solvent and emulsifier, and the concentrate is diluted with water to the desired concentration. Plum trees (Prunus domestica), of a height of approximately 30 cm, which are heavily infested by all stages of the fruit tree red spider mite (Panonychus ulmi) are sprayed with a preparation of active compound of the desired concentration. After the desired period of time, the effect in % is determined. 100% means that all of the spider mites have been killed: 0% means that none of the spider mites has been killed.

[8] = system: Meloidogyne incognita; assay: Meloidogyne test (Example G); settings: 20 ppm; gall formation on lettuce roots
Method: as §1, with “Test Solvent: 8 parts by” for “Test Solvent: 30 parts by”, “of active compound. Meloidogyne incognita” for “of active compound, Meloidogyne incognita”

Structure (SMILES): Cc1cc(-c2ccc(Cl)cc2)cc(C)c1C1=C(OC(=O)C(C)C)C(C)(C)C(C)(C)OC1=O [Ex. I-A-b-1]
- Kill rate in % after 14d [1]: 100%

Structure (SMILES): COC1OC(=O)C(c2ccc(Cl)cc2C)=C(OC(C)=O)C1(C)C (centres unmarked) [Ex. I-A-b-3]
- Efficacy in % [2]: 80%

Structure (SMILES): Cc1ccc(-c2ccc(Cl)cc2)cc1C1=C(OC(=O)C(C)C)C(C)(C)C(C)(C)OC1=O [Ex. I-A-b-10]
- Kill rate in % after 14d [1]: 100%
- Kill rate in % after 7d [3]: 100%
- Kill rate in % after 7d [4]: 100%

Structure (SMILES): Cc1cc(-c2ccc(Cl)cc2)cc(C)c1C1=C(OC(=O)C(C)C)C(C)(C)COC1=O [Ex. I-A-b-11]
- Kill rate in % after 7d [4]: 100%

Structure (SMILES): Cc1ccc(-c2ccc(Cl)cc2)cc1C1=C(OC(=O)OC(C)C)C(C)(C)C(C)(C)OC1=O [Ex. I-A-c-3]
- Kill rate in % after 7d ([5]; 0.01 ppm): 100%
- Kill rate in % after 7d [4]: 90%

Structure (SMILES): COC1OC(OC(C)=O)=C(c2ccc(Cl)cc2C)C(=O)C1(C)C (centres unmarked) [Ex. I-B-b-13]
- Efficacy in % [2]: 70%

Structure (SMILES): Cc1cc(C)c(C2=C(OC(=O)C(C)C)OC(C)(C)C(C)(C)C2=O)c(C)c1 [Ex. I-B-b-16]
- Kill rate in % after 7d ([5]; 100 ppm): 100%

Structure (SMILES): Cc1cc(C)c(C2=C(OC(=O)C(C)C)OCC(C)(C)C2=O)c(C)c1 [Ex. I-B-b-17]
- Kill rate in % after 7d ([5]; 100 ppm): 100%
- Kill rate in % after 14d [1]: 90%

Structure (SMILES): Cc1cc(C)c(C2=C(OC(=O)OC(C)C)OCC(C)(C)C2=O)c(C)c1 [Ex. I-B-c-1]
- Kill rate in % after 7d ([5]; 100 ppm): 100%
- Kill rate in % after 14d [1]: 90%

Structure (SMILES): Cc1cc(-c2ccc(Cl)cc2)cc(C)c1C1=C(O)C(C)(C)C(C)(C)OC1=O [Ex. I-a-1]
- Kill rate in % after 7d [4]: 100%

Structure (SMILES): Cc1ccc(-c2ccc(Cl)cc2)cc1C1=C(O)C(C)(C)COC1=O [Ex. I-a-5]
- Kill rate in % after 6d [6]: 95%
- Kill rate in % after 14d [1]: 100%
- Kill rate in % after 7d [4]: 100%

Structure (SMILES): Cc1ccc(-c2ccc(Cl)cc2)cc1C1=C(O)C(C)(C)C(C)(C)OC1=O [Ex. I-a-6]
- Kill rate in % after 7d ([5]; 100 ppm): 100%
- Kill rate in % after 14d [7]: 100%
- Kill rate in % after 6d [6]: 95%
- Kill rate in % after 7d [3]: 100%
- Kill rate in % after 7d [4]: 100%

Structure (SMILES): Cc1cc(C)c(C2=C(O)C(C)(C)C(C)(C)OC2=O)c(C)c1 [Ex. I-a-7]
- Kill rate in % after 6d [6]: 90%
- Kill rate in % at active compound concentration in ppm [8]: 20 ppm = 100%

Structure (SMILES): Cc1cc(-c2ccc(Cl)cc2)cc(C)c1C1=C(O)C(C)(C)COC1=O [Ex. I-a-13]
- Kill rate in % after 7d [4]: 100%
